Counter-ions that a name gives are not always drawn.

For assay [1], the target named is P-selectin. Kind of assay: Inhibitory test on the binding of P-selectin to sialyl Le^X (selectin-IgG chimera). As to conditions: inhibition of P-selectin IgG chimera binding to sialyl Le^X-pentaceramide. As to the method:
Inhibitory test on the binding of P-selectin to sialyl Le^X :
(§1) The experiment was carried out according to the method using selectin-IgG chimera, which was reported by Foxall, C. et al. (J. Cell Biol., 117, 895-902 (1992)).
(§2) Sialyl Le^X -pentaceramide was dissolved in 50% methanol in distilled water, and the solution was put into a 96-well plate in an amount of 100 pmol/well. The plate was allowed to stand at room temperature overnight, and the solvent therein was evaporated. The plate was washed with distilled water, and subjected to blocking with 50 mM imidazole buffer (pH 7.2) containing 5% BSA (bovine serum albumin) and 1 mM calcium chloride at room temperature for one hour.
(§3) Separately, to 500-fold diluted solution of each biotinylated anti-human IgG Fc and streptavidin-alkaline phosphatase conjugate with a 50 mM imidazole buffer (pH 7.2) containing 1% BSA and 1 mM calcium chloride, P-selectin IgG chimera was added to give a final concentration of 40 μg/ml, and the mixture was incubated at room temperature for 30 minutes to give the complex solution.
(§4) A test compound was dissolved in DMSO (except that the test compound h was dissolved in distilled water) to give 10 mM aqueous solution thereof, which was serially diluted with 50 mM imidazole buffer (pH 7.2) containing 1% BSA and 1 mM calcium chloride to give the solutions in 8 various concentrations (two-fold serial dilution from 20 μM). The test compound solution in each concentration and the above complex solution were mixed in equal volume, and the mixture was incubated at room temperature for 30 minutes to give the reaction solution.
(§5) After the blocking was completed, the blocking solution in the above plate was discarded, and the plate was washed with 50 mM imidazole buffer (pH 7.2), and thereto was added the above reaction solution in an amount of 50 μl/well. The plate was incubated at 37° C. for 45 minutes, and then washed three times with 50 mM imidazole buffer (pH 7.2) and washed three times with distilled water. 1M diethanolamine (pH 9.8) containing 0.01% magnesium chloride and 1 mg/ml p-nitrophenyl phosphate was put into each well in an amount of 50 μl/well, and the plate was allowed to stand for 1 to 2 hours for color development. The absorbance at 405 nm was measured, and the binding rate (%) was calculated by the following equation, based on the absorbance (X) of the wells containing a test compound at various concentrations and the absorbance (A) of the wells containing no test compound.
(§6) IC50 was evaluated by probit method from the binding rate.

In assay [2] the target is L-selectin. Kind of assay: Inhibitory test on the binding of L-selectin to sialyl Le^X (selectin-IgG chimera). As to conditions: inhibition of L-selectin IgG chimera binding to sialyl Le^X-pentaceramide. As for the experimental part:
as §1, §2, §3, §4, §5, §6
Inhibitory test on the binding of L-selectin to sialyl Le^X :
The same procedures of Experiment 1 were repeated except that L-selectin IgG chimera (40 μg/ml) was used instead of P-selectin IgG chimera (40 μg/ml).

As to `CC(=O)N[C@H]1[C@H]([C@H](O)[C@H](O)CO)O[C@@](O[C@H]2[C@@H](O)[C@@H](CO)O[C@@H](O[C@@H]([C@H](O[C@@H]3O[C@@H](C)[C@@H](O)[C@@H](O)[C@@H]3O)[C@H](C=O)NC(C)=O)[C@H](O)CO)[C@@H]2O)(C(=O)O)C[C@@H]1O` [compound X, Sialyl Le^X, reference compound], the IC50 in assay [1] and in assay [2] was > 500000 nM in each case.
As to `CCCCCCCCCCCCCCC(CCCCCCCCCCCCCC)C(=O)N[C@@H](CO[C@@H]1O[C@H]([C@H](C)O)[C@@H](O)[C@@H]1O)C(=O)N[C@@H](CCC(=O)O)C(=O)NC` [compound a, [N-(2-tetradecylhexadecanoyl)-O-(α-L-fucofuranosyl)-L-seryl]-L-glutamic acid 1-methylamide], the IC50 (as a rule, the point on the concentration scale where inhibition reaches its midpoint) in assay [1] stood at 1300 nM; in assay [2], 2200 nM.
In the case of `CCCCCCCCCCCCCCC(CCCCCCCCCCCCCC)C(=O)N[C@@H](CO[C@@H]1O[C@H]([C@H](C)O)[C@@H](O)[C@@H]1O)C(=O)N[C@H](CCC(=O)O)C(=O)NC` [compound b, [N-(2-tetradecylhexadecanoyl)-O-(α-L-fucofuranosyl)-L-seryl]-D-glutamic acid 1-methylamide], the IC50 in assay [1] came out at 1000 nM; in assay [2] it was 1500 nM.
As for `CCCCCCCCCCCCCCC(CCCCCCCCCCCCCC)C(=O)N[C@H](CO[C@@H]1O[C@H]([C@H](C)O)[C@@H](O)[C@@H]1O)C(=O)N[C@H](CCC(=O)O)C(=O)NC` [compound d, [N-(2-tetradecylhexadecanoyl)-O-(α-L-fucofuranosyl)-D-seryl]-D-glutamic acid 1-methylamide], the IC50 in assay [1] amounted to 200 nM; in assay [2], 500 nM.
For `CCCCCCCCCCCCCCC(CCCCCCCCCCCCCC)C(=O)N[C@@H](CO[C@@H]1O[C@H]([C@H](C)O)[C@@H](O)[C@@H]1O)C(=O)NCCCC(=O)O` [compound e, 4-N-[N-(2-tetradecylhexadecanoyl)-O-(α-L-fucofuranosyl)-L-seryl]aminobutyric acid] the same measures were 500 nM and 1800 nM.
For `CCCCCCCCCCCCCCC(CCCCCCCCCCCCCC)C(=O)N[C@@H](CO[C@@H]1O[C@H]([C@H](C)O)[C@@H](O)[C@@H]1O)C(=O)NCCCCC(=O)O` [compound f, 5-N-[N-(2-tetradecylhexadecanoyl)-O-(α-L-fucofuranosyl)-L-seryl]aminovaleric acid], the IC50 in assay [1] turned out to be 1200 nM; in assay [2], 2500 nM.
For `CCCCCCCCCCCCCCC(CCCCCCCCCCCCCC)C(=O)N[C@@H](CO[C@@H]1O[C@H]([C@H](C)O)[C@@H](O)[C@@H]1O)C(=O)N[C@H](CCC(=O)O)C(=O)Nc1ccccc1` [compound g, [N-(2-tetradecylhexadecanoyl)-O-(α-L-fucofuranosyl)-L-seryl]-D-glutamic acid 1-anilide], the IC50 in assay [1] came to 100 nM; in assay [2], 1700 nM.
For `CCCCCCCCCCCCCCC(CCCCCCCCCCCCCC)C(=O)N[C@@H](CO[C@@H]1O[C@H]([C@H](C)O)[C@@H](O)[C@@H]1O)C(=O)N[C@H](CCC(=O)O)C(=O)NC` [compound h, [N-(2-tetradecylhexadecanoyl)-O-(α-L-fucofuranosyl)-L-seryl]-D-glutamic acid 1-methylamide sodium salt], the results for the concentration for half-maximal inhibition (IC50) in assay [1] (sodium salt) and in assay [2] (sodium salt) were 1200 nM and 300 nM, respectively.
`CCCCCCCCCCCCCCC(CCCCCCCCCCCCCC)C(=O)N[C@@H](CO[C@@H]1O[C@@H](C)[C@@H](O)[C@@H](O)[C@@H]1O)C(=O)N[C@@H](CCC(=O)O)C(=O)NC` [compound i, [N-(2-tetradecylhexadecanoyl)-O-(α-L-fucopyranosyl)-L-seryl]-L-glutamic acid 1-methylamide]: the IC50 came to 1900 nM in assay [1] and 39000 nM in assay [2].
Taken in the same sequence, the figures for `CCCCCCCCCCCCCCC(CCCCCCCCCCCCCC)C(=O)N[C@@H](CO[C@@H]1O[C@@H](C)[C@@H](O)[C@@H](O)[C@@H]1O)C(=O)N[C@H](CCC(=O)O)C(=O)NC` [compound j, [N-(2-tetradecylhexadecanoyl)-O-(α-L-fucopyranosyl)-L-seryl]-D-glutamic acid 1-methylamide] were 500 nM and 6000 nM.
As for `CCCCCCCCCCCCCCC(CCCCCCCCCCCCCC)C(=O)N[C@H](CO[C@@H]1O[C@@H](C)[C@@H](O)[C@@H](O)[C@@H]1O)C(=O)N[C@H](CCC(=O)O)C(=O)NC` [compound l, [N-(2-tetradecylhexadecanoyl)-O-(α-L-fucopyranosyl)-D-seryl]-D-glutamic acid 1-methylamide], the figures for the IC50 in assay [1] and in assay [2] were 2100 nM and 18000 nM, respectively.
As to `CCCCCCCCCCCCCCC(CCCCCCCCCCCCCC)C(=O)N[C@@H](CO[C@H]1O[C@@H](C)[C@@H](O)[C@@H](O)[C@@H]1O)C(=O)N[C@@H](CCC(=O)O)C(=O)NC` [compound m, [N-(2-tetradecylhexadecanoyl)-O-(β-L-fucopyranosyl)-L-seryl]-L-glutamic acid 1-methylamide], the IC50 in assay [1] stood at 600 nM; in assay [2], 800 nM.
Take `CCCCCCCCCCCCCCC(CCCCCCCCCCCCCC)C(=O)N[C@@H](CO[C@H]1O[C@@H](C)[C@@H](O)[C@@H](O)[C@@H]1O)C(=O)N[C@H](CCC(=O)O)C(=O)NC` [compound n, [N-(2-tetradecylhexadecanoyl)-O-(β-L-fucopyranosyl)-L-seryl]-D-glutamic acid 1-methylamide]: the figures for the IC50 in assay [1] and in assay [2] were 300 nM and 800 nM, respectively.
Taken in the same sequence, the figures for `CCCCCCCCCCCCCCC(CCCCCCCCCCCCCC)C(=O)N[C@H](CO[C@H]1O[C@@H](C)[C@@H](O)[C@@H](O)[C@@H]1O)C(=O)N[C@@H](CCC(=O)O)C(=O)NC` [compound o, [N-(2-tetradecylhexadecanoyl)-O-(β-L-fucopyranosyl)-D-seryl]-L-glutamic acid 1-methylamide] were 300 nM and 1600 nM.
Taken in the same sequence, the figures for `CCCCCCCCCCCCCCC(CCCCCCCCCCCCCC)C(=O)N[C@H](CO[C@H]1O[C@@H](C)[C@@H](O)[C@@H](O)[C@@H]1O)C(=O)N[C@H](CCC(=O)O)C(=O)NC` [compound p, [N-(2-tetradecylhexadecanoyl)-O-(β-L-fucopyranosyl)-D-seryl]-D-glutamic acid 1-methylamide] were 300 nM and 700 nM.
`CCCCCCCCCCCCCCC(CCCCCCCCCCCCCC)C(=O)N[C@@H](CS[C@@H]1O[C@@H](C)[C@@H](O)[C@@H](O)[C@@H]1O)C(=O)N[C@@H](CCC(=O)O)C(=O)NC` [compound q, [N-(2-tetradecylhexadecanoyl)-S-(α-L-fucopyranosyl)-L-cysteinyl]-L-glutamic acid 1-methylamide]: the IC50 in assay [1] worked out at 100 nM; in assay [2], 200 nM.
Turning to `CCCCCCCCCCCCCCC(CCCCCCCCCCCCCC)C(=O)N[C@@H](CS[C@@H]1O[C@@H](C)[C@@H](O)[C@@H](O)[C@@H]1O)C(=O)N[C@H](CCC(=O)O)C(=O)NC` [compound r, [N-(2-tetradecylhexadecanoyl)-S-(α-L-fucopyranosyl)-L-cysteinyl]-D-glutamic acid 1-methylamide], the results for the IC50 in assay [1] and in assay [2] were 200 nM and 700 nM, respectively.
`CCCCCCCCCCCCCCC(CCCCCCCCCCCCCC)C(=O)N[C@H](CS[C@@H]1O[C@@H](C)[C@@H](O)[C@@H](O)[C@@H]1O)C(=O)N[C@@H](CCC(=O)O)C(=O)NC` [compound s, [N-(2-tetradecylhexadecanoyl)-S-(α-L-fucopyranosyl)-D-cysteinyl]-L-glutamic acid 1-methylamide]: the half-maximal inhibitory concentration (IC50) in assay [1] and in assay [2] was 100 nM throughout.
For the molecule `CCCCCCCCCCCCCCC(CCCCCCCCCCCCCC)C(=O)N[C@H](CS[C@@H]1O[C@@H](C)[C@@H](O)[C@@H](O)[C@@H]1O)C(=O)N[C@H](CCC(=O)O)C(=O)NC` [compound t, [N-(2-tetradecylhexadecanoyl)-S-(α-L-fucopyranosyl)-D-cysteinyl]-D-glutamic acid 1-methylamide], the IC50 came to 300 nM in assay [1] and 600 nM in assay [2].
On to `CCCCCCCCCCCCCCC(CCCCCCCCCCCCCC)C(=O)N[C@@H](CS[C@H]1O[C@@H](C)[C@@H](O)[C@@H](O)[C@@H]1O)C(=O)N[C@H](CCC(=O)O)C(=O)NC` [compound u, [N-(2-tetradecylhexadecanoyl)-S-(β-L-fucopyranosyl)-L-cysteinyl]-D-glutamic acid 1-methylamide], for which the IC50 in assay [1] and in assay [2] was 1000 nM in each case.

Values taken from patent US5919769A, “Fucose derivatives, drugs containing the same as active ingredient, and intermediates for producing the same” (Kanebo, Ltd, priority 1995, dated 1999).
